US9221834B2 (Merck Sharp & Dohme Corp., priority 2010, dated 2015)

Molecular target: T1, recombinant CETP (rCETP) (Homo sapiens, UniProt P11597)
T1 sequence (P11597 18-493): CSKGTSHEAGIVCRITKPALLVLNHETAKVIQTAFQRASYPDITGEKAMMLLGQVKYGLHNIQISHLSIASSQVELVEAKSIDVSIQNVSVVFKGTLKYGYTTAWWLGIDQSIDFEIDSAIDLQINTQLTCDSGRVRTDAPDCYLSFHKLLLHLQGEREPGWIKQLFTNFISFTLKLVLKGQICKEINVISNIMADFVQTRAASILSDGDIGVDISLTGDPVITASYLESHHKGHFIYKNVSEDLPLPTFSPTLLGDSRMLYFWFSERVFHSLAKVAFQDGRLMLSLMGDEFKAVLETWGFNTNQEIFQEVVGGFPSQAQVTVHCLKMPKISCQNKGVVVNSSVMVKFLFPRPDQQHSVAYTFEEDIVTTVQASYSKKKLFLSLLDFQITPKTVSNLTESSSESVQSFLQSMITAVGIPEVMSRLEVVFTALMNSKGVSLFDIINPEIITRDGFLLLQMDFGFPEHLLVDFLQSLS
Experiment: RTA assay using recombinant CETP (2% RTA)
Type: biochemical
Settings: RTA assay in 2% human serum; read-out: IC50
Method: In Vitro Radioactive Assays of CETP-Catalyzed CE and TG Transfer (RTA Assay)
Reagents and sources are: [3H] cholesteryl oleate (GE #TRK.886), [3H]
Both assays measure the transfer of [3H] cholesteryl oleate or [3H]triolein from exogenous LDL to HDL.
After a brief vortex, the solution is sonicated until clear and mixed with 20 mL of fresh human serum. The mixture is incubated overnight at 37° C. […] Once isolated the particles are dialyzed 3× in CETP buffer (50 mM Tris, pH 7.4, 100 mM NaCl, 1 mM EDTA). Human HDL is purchased from Intracel and used as the acceptor particles.
Transfer assays are performed in a 96-well v-bottom polypropylene plate. […] 1 μL of each test compound diluted in DMSO is added to 47 μL of assay cocktail per well and incubated at 37° C. for 1 hour. To initiate the transfer reaction, 2 μL radiolabeled LDL is added. After an additional 60 min of incubation at 37° C., the transfer action is terminated by precipitation of LDL with an equal volume of 20% W/V PEG 8000. The plates are centrifuged at 2000 rpm for 30 minutes at 4° C. A 40 μL aliquot of the HDL-containing supernatant is transferred to a Packard Optiplate with 200 μL of MicroScint 20. After mixing, plates are counted by liquid scintillation. Counts present in the supernatant for blanks (wells containing only HDL acceptor, CETP buffer and DMSO) are subtracted from those containing test compounds and used to correct for non-specific transfer.
Comparison of the counts of samples with inhibitors to an uninhibited (DMSO only) positive control yield a percent inhibition. A plot of percent inhibition vs. log of inhibitor concentration, fit to a Sigmoidal 4 parameter equation is used to calculate IC50.

Going from `COC(=O)[C@@H]1CC[C@@H](c2ccc(OC)c(-c3c(C)cc(N4CCC4)nc3CN3C(=O)O[C@H](c4cc(C(F)(F)F)cc(C(F)(F)F)c4)[C@@H]3C)c2)C1` (mixture of isomers) [Example 216] to `COc1ccc([C@H]2C[C@@H](C(=O)OC)C2)cc1-c1c(C)cc(N2CCC2)nc1CN1C(=O)O[C@H](c2cc(C(F)(F)F)cc(C(F)(F)F)c2)[C@@H]1C` (single isomer, unassigned) [Example 41], the IC50 falls from 9 nM to 4 nM (2.2-fold). The second is the more potent here.

Compared with `COc1ccc(C2CCC(O)C2)cc1-c1ccc(N2CCC2)nc1CN1C(=O)O[C@H](c2cc(C(F)(F)F)cc(C(F)(F)F)c2)[C@@H]1C` (mixture of isomers) [Example 262], `COc1ccc([C@@H]2CC[C@@H](C(=O)O)C2)cc1-c1ccc(N2CCC2)nc1CN1C(=O)O[C@H](c2cc(C(F)(F)F)cc(C(F)(F)F)c2)[C@@H]1C` (single isomer, unassigned) [Example 238] is 1.7-fold higher in IC50: 3 nM for the first, 5 nM for the second. The first is the more potent here.

`COc1ccc(C2CCC(O)C2)cc1-c1ccc(N2CCC2)nc1CN1C(=O)O[C@H](c2cc(C(F)(F)F)cc(C(F)(F)F)c2)[C@@H]1C` (mixture of isomers) [Example 263] and `COc1ccc([C@@H]2CC[C@@H](C(=O)O)C2)cc1-c1ccc(N2CCC2)nc1CN1C(=O)O[C@H](c2cc(C(F)(F)F)cc(C(F)(F)F)c2)[C@@H]1C` (single isomer, unassigned) [Example 239] are within 1.5-fold of each other in IC50: 5 nM for the first, 7 nM for the second.

Going from `COC(=O)[C@@H]1CC[C@@H](c2ccc(OC)c(-c3ccc(N4CCC4)nc3CN3C(=O)O[C@H](c4cc(C(F)(F)F)cc(C(F)(F)F)c4)[C@@H]3C)c2)C1` (racemic) [Example 214] to `COC(=O)[C@H]1CC[C@@H](c2ccc(OC)c(-c3ccc(N4CCC4)nc3CN3C(=O)O[C@H](c4cc(C(F)(F)F)cc(C(F)(F)F)c4)[C@@H]3C)c2)C1` (single isomer, unassigned) [Example 217], the IC50 rises from 8 nM to 19 nM (2.4-fold).

Compared with `COC(=O)CCc1ccc(OC)c(-c2c(C)cc(N3CCC3)nc2CN2C(=O)O[C@H](c3cc(C(F)(F)F)cc(C(F)(F)F)c3)[C@@H]2C)c1` (single isomer, unassigned) [Example 39], `COC(=O)CCc1ccc(OC)c(-c2ccc(N3CCC3)nc2CN2C(=O)O[C@H](c3cc(C(F)(F)F)cc(C(F)(F)F)c3)[C@@H]2C)c1` [Example 1, Methyl 3-{3-[6-azetidin-1-yl-2-({(4S,5R)-5-[3,5-bis(trifluoromethyl)phenyl]-4-methyl-2-oxo-1,3-oxazolidin-3-yl}methy)pyridin-3-yl]-4-methoxyphenyl}propanoate] is 2.7-fold higher in IC50: 3 nM for the first, 8 nM for the second.

First: COc1ccc([C@H]2C[C@@H](C(=O)OC)C2)cc1-c1c(C)cc(N2CCC2)nc1CN1C(=O)O[C@H](c2cc(C(F)(F)F)cc(C(F)(F)F)c2)[C@@H]1C (single isomer, unassigned) [Example 42]
Second: COc1ccc([C@H]2C[C@@H](C(=O)OC)C2)cc1-c1ccc(N2CCC2)nc1CN1C(=O)O[C@H](c2cc(C(F)(F)F)cc(C(F)(F)F)c2)[C@@H]1C [Example 23]
The IC50 of the first is 5.7-fold higher: 102 nM for the first, 18 nM for the second. The second is the more potent here.

Compared with `COC(=O)[C@H]1CC[C@@H](c2ccc(OC)c(-c3ccc(N4CCC4)nc3CN3C(=O)O[C@H](c4cc(C(F)(F)F)cc(C(F)(F)F)c4)[C@@H]3C)c2)C1` (single isomer, unassigned) [Example 218], `COc1ccc([C@H]2C[C@H](C(=O)OC)C2)cc1-c1ccc(N2CCC2)nc1CN1C(=O)O[C@H](c2cc(C(F)(F)F)cc(C(F)(F)F)c2)[C@@H]1C` [Example 24] is 6-fold lower in IC50: 12 nM for the first, 2 nM for the second. The second is the more potent here.

Going from `COc1ccc([C@@H]2CC[C@H](C(=O)O)C2)cc1-c1ccc(N2CCC2)nc1CN1C(=O)O[C@H](c2cc(C(F)(F)F)cc(C(F)(F)F)c2)[C@@H]1C` (single isomer, unassigned) [Example 245] to `COc1ccc([C@H]2CC[C@H](C(=O)OC)CC2)cc1-c1ccc(N2CCC2)nc1CN1C(=O)O[C@H](c2cc(C(F)(F)F)cc(C(F)(F)F)c2)[C@@H]1C` [Example 9], the IC50 rises from 9 nM to 15 nM (1.7-fold). The first is the more potent here.

`COc1ccc([C@@H]2CC[C@H](C(=O)O)C2)cc1-c1ccc(N2CCC2)nc1CN1C(=O)O[C@H](c2cc(C(F)(F)F)cc(C(F)(F)F)c2)[C@@H]1C` (single isomer, unassigned) [Example 246] and `COC(=O)C[C@H]1C[C@@H](c2ccc(OC)c(-c3ccc(N4CCC4)nc3CN3C(=O)O[C@H](c4cc(C(F)(F)F)cc(C(F)(F)F)c4)[C@@H]3C)c2)C1` [Example 25] are within 1.5-fold of each other in IC50: 12 nM for the first, 14 nM for the second.

Compared with `COC(=O)CCc1ccc(OC)c(-c2ccc(N3CCCC3)nc2CN2C(=O)O[C@H](c3cc(C(F)(F)F)cc(C(F)(F)F)c3)[C@@H]2C)c1` [Example 2], `COC(=O)Cc1ccc(OC)c(-c2ccc(N3CCC3)nc2CN2C(=O)O[C@H](c3cc(C(F)(F)F)cc(C(F)(F)F)c3)[C@@H]2C)c1` [Example 8] is 2.8-fold lower in IC50: 33 nM for the first, 12 nM for the second.

`CCOC(=O)[C@@H]1C[C@H]1c1ccc(OC)c(-c2ccc(N3CCC3)nc2CN2C(=O)O[C@H](c3cc(C(F)(F)F)cc(C(F)(F)F)c3)[C@@H]2C)c1` [Example 3] and `CCOC(=O)[C@H]1C[C@@H]1c1ccc(OC)c(-c2ccc(N3CCC3)nc2CN2C(=O)O[C@H](c3cc(C(F)(F)F)cc(C(F)(F)F)c3)[C@@H]2C)c1` [Example 4] are the same in IC50: 6 nM for the first, 6 nM for the second.

Going from `COC(=O)CCc1ccc(Cl)c(-c2ccc(N3CCC3)nc2CN2C(=O)O[C@H](c3cc(C(F)(F)F)cc(C(F)(F)F)c3)[C@@H]2C)c1` [Example 5] to `COC(=O)CC(C)(C)c1ccc(OC)c(-c2ccc(N3CCC3)nc2CN2C(=O)O[C@H](c3cc(C(F)(F)F)cc(C(F)(F)F)c3)[C@@H]2C)c1` [Example 7], the IC50 rises from 7 nM to 12 nM (1.7-fold).

First: CCOC(=O)CC1CCc2cc(OC)c(-c3ccc(N4CCC4)nc3CN3C(=O)O[C@H](c4cc(C(F)(F)F)cc(C(F)(F)F)c4)[C@@H]3C)cc21 (stereo partly drawn) [Example 6]
Second: CCOC(=O)C[C@@H]1CCc2cc(OC)c(-c3ccc(N4CCC4)nc3CN3C(=O)O[C@H](c4cc(F)cc(F)c4)[C@@H]3C)cc21 [Example 20]
The IC50 of the first is 14-fold lower: 7 nM for the first, 96 nM for the second. The first is the more potent here.

Going from `COc1ccc(CC(C)(C)C(=O)OC(C)(C)C)cc1-c1ccc(N2CCC2)nc1CN1C(=O)O[C@H](c2cc(C(F)(F)F)cc(C(F)(F)F)c2)[C@@H]1C` [Example 10] to `COC(=O)C[C@H]1C[C@H](c2ccc(OC)c(-c3ccc(N4CCC4)nc3CN3C(=O)O[C@H](c4cc(C(F)(F)F)cc(C(F)(F)F)c4)[C@@H]3C)c2)C1` [Example 26], the IC50 falls from 63 nM to 7 nM (9-fold). The second is the more potent here.

First: COC(=O)CCc1ccc(OC)c(-c2ccc(N3CCC3)nc2CN2C(=O)O[C@H](c3ccc(F)c(F)c3)[C@@H]2C)c1 [Example 11]
Second: COC(=O)CCc1ccc(OC)c(-c2ccc(N3CCC3)nc2CN2C(=O)O[C@H](c3cc(F)cc(F)c3)[C@@H]2C)c1 [Example 14]
The IC50 of the first is 2.1-fold higher: 186 nM for the first, 87 nM for the second. The second is the more potent here.

`COC(=O)CC(C)(C)c1ccc(OC)c(-c2ccc(N3CCC3)nc2CN2C(=O)O[C@H](c3ccc(F)c(F)c3)[C@@H]2C)c1` [Example 12] and `COC(=O)CC(C)(C)c1ccc(OC)c(-c2ccc(N3CCC3)nc2CN2C(=O)O[C@H](c3cc(F)cc(F)c3)[C@@H]2C)c1` [Example 15] are within 1.5-fold of each other in IC50: 227 nM for the first, 159 nM for the second.

First: CCOC(=O)[C@@H]1C[C@H]1c1ccc(OC)c(-c2ccc(N3CCC3)nc2CN2C(=O)O[C@H](c3ccc(F)c(F)c3)[C@@H]2C)c1 [Example 13]
Second: CCOC(=O)[C@@H]1C[C@H]1c1ccc(OC)c(-c2ccc(N3CCC3)nc2CN2C(=O)O[C@H](c3cc(F)cc(F)c3)[C@@H]2C)c1 [Example 16]
The IC50 of the first is 5.3-fold higher: 498 nM for the first, 94 nM for the second. The second is the more potent here.

Going from `CCOC(=O)[C@H]1C[C@@H]1c1ccc(OC)c(-c2ccc(N3CCC3)nc2CN2C(=O)O[C@H](c3cc(F)cc(F)c3)[C@@H]2C)c1` [Example 17] to `CCOC(=O)[C@@H]1C[C@@H]1c1ccc(OC)c(-c2ccc(N3CCC3)nc2CN2C(=O)O[C@H](c3cc(F)cc(F)c3)[C@@H]2C)c1` [Example 18], the IC50 falls from 181 nM to 62 nM (2.9-fold).

First: COc1ccc([C@H]2CC[C@H](C(=O)OC)CC2)cc1-c1ccc(N2CCC2)nc1CN1C(=O)O[C@H](c2cc(F)cc(F)c2)[C@@H]1C [Example 19]
Second: COC(=O)c1ccc(-c2cc(-c3ccc(N4CCC4)nc3CN3C(=O)O[C@H](c4cc(F)cc(F)c4)[C@@H]3C)c(OC)cc2F)c(C)c1 [Example 21]
The IC50 of the first is 17-fold higher: 381 nM for the first, 22 nM for the second.

For `CCOC(=O)[C@@H]1C[C@H]1c1ccc(CC)c(-c2ccc(N3CCC3)nc2CN2C(=O)O[C@H](c3cc(C(F)(F)F)cc(C(F)(F)F)c3)[C@@H]2C)c1` [Example 22], the IC50 was 11 nM.
